Columns and labels:
Type in all cases: cell-based
[1] = system: IL-2 secretion from T cells in human whole blood; details: read-out: WB (IL-2) IC50 (nM, Avg)
[2] = system: IFN-g secretion from T cells in human whole blood; details: read-out: WB (IFNg) IC50 (nM, Avg)
hKv1.3 = hKv1.3 (Homo sapiens, UniProt P22001); experiment: cell-based; details: Kv1.3 (IWQ) IC50 (nM, Avg)
hKv1.3, sequence (P22001 whole entry): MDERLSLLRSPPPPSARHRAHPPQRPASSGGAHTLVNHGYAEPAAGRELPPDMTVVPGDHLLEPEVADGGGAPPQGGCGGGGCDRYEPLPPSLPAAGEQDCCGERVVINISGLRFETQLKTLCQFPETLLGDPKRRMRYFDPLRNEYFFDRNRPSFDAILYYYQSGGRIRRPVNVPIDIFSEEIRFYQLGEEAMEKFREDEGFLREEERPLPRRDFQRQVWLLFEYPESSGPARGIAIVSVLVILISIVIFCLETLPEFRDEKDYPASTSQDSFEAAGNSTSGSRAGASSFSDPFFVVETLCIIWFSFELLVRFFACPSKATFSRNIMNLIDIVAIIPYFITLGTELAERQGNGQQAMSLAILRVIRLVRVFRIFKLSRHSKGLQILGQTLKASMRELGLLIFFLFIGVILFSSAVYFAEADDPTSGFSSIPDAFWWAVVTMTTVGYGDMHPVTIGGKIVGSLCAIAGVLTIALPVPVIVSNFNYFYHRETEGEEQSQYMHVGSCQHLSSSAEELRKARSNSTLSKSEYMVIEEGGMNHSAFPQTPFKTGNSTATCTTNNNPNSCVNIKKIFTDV

How did the IC50 [1] turn out when CC[C@H](C)[C@@H]1NC(=O)[C@@H](NC(=O)[C@H](CO)NC(=O)[C@@H](N)CCCNC(=N)N)CSSC[C@@H](C(=O)O)NC(=O)[C@H]([C@@H](C)O)NC(=O)CNC(=O)[C@@H]2CSSC[C@@H]3NC(=O)[C@H](CCC(N)=O)NC(=O)[C@H](Cc4ccccc4)NC(=O)[C@H](C)NC(=O)[C@H]([C@@H](C)O)NC(=O)[C@H](CSSC[C@H](NC(=O)[C@H](Cc4ccccc4)NC(=O)[C@H](CO)NC(=O)[C@H](CC(C)C)NC(=O)[C@H](CCCNC(=N)N)NC(=O)[C@H](Cc4ccc(O)cc4)NC(=O)[C@H](CCCCN)NC(=O)[C@H](CCSC)NC(=O)[C@H](CO)NC(=O)[C@H](CCCNC(=N)N)NC(=O)[C@H](CCCCN)NC3=O)C(=O)N[C@@H](CCCNC(=N)N)C(=O)N[C@@H](CCCCN)C(=O)N[C@@H]([C@@H](C)O)C(=O)N2)NC(=O)[C@H](CCCNC(=N)N)NC(=O)[C@H](CO)NC(=O)[C@H](CCCCN)NC(=O)[C@@H]2CCCN2C(=O)[C@H]([C@@H](C)CC)NC(=O)[C@H]([C@@H](C)O)NC(=O)[C@H](CC(=O)O)NC1=O [[Arg19]ShK] was run?
Its IC50 is 0.039 nM.

And the IC50 [2]?
Its IC50 is 0.116 nM.

And the IC50 (hKv1.3)?
Its IC50 is 0.1 nM.

How did the IC50 [1] turn out when CC[C@H](C)[C@@H]1NC(=O)[C@@H](NC(=O)[C@H](CO)NC(=O)[C@@H](N)CCCNC(=N)N)CSSC[C@@H](C(=O)O)NC(=O)[C@H]([C@@H](C)O)NC(=O)CNC(=O)[C@@H]2CSSC[C@@H]3NC(=O)[C@H](CCC(N)=O)NC(=O)[C@H](Cc4ccccc4)NC(=O)[C@H](C)NC(=O)[C@H]([C@@H](C)O)NC(=O)[C@H](CSSC[C@H](NC(=O)[C@H](Cc4ccccc4)NC(=O)[C@H](CO)NC(=O)[C@H](CC(C)C)NC(=O)[C@H](CCCNC(=N)N)NC(=O)[C@H](Cc4ccc(O)cc4)NC(=O)[C@H](CCCCN)NC(=O)[C@H](CCSC)NC(=O)[C@H](CCCNC(=N)N)NC(=O)[C@H](Cc4c[nH]cn4)NC(=O)[C@H](CCCCN)NC3=O)C(=O)N[C@@H](CCCNC(=N)N)C(=O)N[C@@H](CCCCN)C(=O)N[C@@H]([C@@H](C)O)C(=O)N2)NC(=O)[C@H](CCCNC(=N)N)NC(=O)[C@H](CO)NC(=O)[C@H](CCCCN)NC(=O)[C@@H]2CCCN2C(=O)[C@H]([C@@H](C)CC)NC(=O)[C@H]([C@@H](C)O)NC(=O)[C@H](CC(=O)O)NC1=O [[Arg20]ShK] was run?
The IC50 was 36.9 nM.

What about the IC50 [2] of the same compound?
The IC50 was 31.3 nM.

And the IC50 (hKv1.3)?
The IC50 was 3.84 nM.

For CC[C@H](C)[C@@H]1NC(=O)[C@@H](NC(=O)[C@H](CO)NC(=O)[C@@H](N)CCCNC(=N)N)CSSC[C@@H](C(=O)O)NC(=O)[C@H]([C@@H](C)O)NC(=O)CNC(=O)[C@@H]2CSSC[C@@H]3NC(=O)[C@H](CCC(N)=O)NC(=O)[C@H](Cc4ccccc4)NC(=O)[C@H](C)NC(=O)[C@H]([C@@H](C)O)NC(=O)[C@H](CSSC[C@H](NC(=O)[C@H](Cc4ccccc4)NC(=O)[C@H](CO)NC(=O)[C@H](CC(C)C)NC(=O)[C@H](CCCNC(=N)N)NC(=O)[C@H](Cc4ccc(O)cc4)NC(=O)[C@H](CCCCN)NC(=O)[C@H](CCCNC(=N)N)NC(=O)[C@H](CO)NC(=O)[C@H](Cc4c[nH]cn4)NC(=O)[C@H](CCCCN)NC3=O)C(=O)N[C@@H](CCCNC(=N)N)C(=O)N[C@@H](CCCCN)C(=O)N[C@@H]([C@@H](C)O)C(=O)N2)NC(=O)[C@H](CCCNC(=N)N)NC(=O)[C@H](CO)NC(=O)[C@H](CCCCN)NC(=O)[C@@H]2CCCN2C(=O)[C@H]([C@@H](C)CC)NC(=O)[C@H]([C@@H](C)O)NC(=O)[C@H](CC(=O)O)NC1=O [[Arg21]ShK], which IC50 [1] is on record?
The IC50 was 1.76 nM.

And the IC50 [2]?
The IC50 was 4.66 nM.

And the IC50 (hKv1.3)?
Its IC50 is 0.283 nM.

Which IC50 [1] does the source give for CC[C@H](C)[C@@H]1NC(=O)[C@@H](NC(=O)[C@H](CO)NC(=O)[C@@H](N)CCCNC(=N)N)CSSC[C@@H](C(=O)O)NC(=O)[C@H]([C@@H](C)O)NC(=O)CNC(=O)[C@@H]2CSSC[C@@H]3NC(=O)[C@H](CCC(N)=O)NC(=O)[C@H](Cc4ccccc4)NC(=O)[C@H](C)NC(=O)[C@H]([C@@H](C)O)NC(=O)[C@H](CSSC[C@H](NC(=O)[C@H](Cc4ccccc4)NC(=O)[C@H](CO)NC(=O)[C@H](CCCNC(=N)N)NC(=O)[C@H](CCCNC(=N)N)NC(=O)[C@H](Cc4ccc(O)cc4)NC(=O)[C@H](CCCCN)NC(=O)[C@H](CCSC)NC(=O)[C@H](CO)NC(=O)[C@H](Cc4c[nH]cn4)NC(=O)[C@H](CCCCN)NC3=O)C(=O)N[C@@H](CCCNC(=N)N)C(=O)N[C@@H](CCCCN)C(=O)N[C@@H]([C@@H](C)O)C(=O)N2)NC(=O)[C@H](CCCNC(=N)N)NC(=O)[C@H](CO)NC(=O)[C@H](CCCCN)NC(=O)[C@@H]2CCCN2C(=O)[C@H]([C@@H](C)CC)NC(=O)[C@H]([C@@H](C)O)NC(=O)[C@H](CC(=O)O)NC1=O [[Arg25]ShK] here?
Its IC50 is 0.095 nM.

What about the IC50 [2] of the same compound?
The IC50 was 0.2 nM.

What about the IC50 (hKv1.3) of the same compound?
Its IC50 is 0.107 nM.

For CC[C@H](C)[C@@H]1NC(=O)[C@@H](NC(=O)[C@H](CO)NC(=O)[C@@H](N)CCCNC(=N)N)CSSC[C@@H](C(=O)O)NC(=O)[C@H]([C@@H](C)O)NC(=O)CNC(=O)[C@@H]2CSSC[C@@H]3NC(=O)[C@H](CCC(N)=O)NC(=O)[C@H](Cc4ccccc4)NC(=O)[C@H](C)NC(=O)[C@H]([C@@H](C)O)NC(=O)[C@H](CSSC[C@H](NC(=O)[C@H](Cc4ccccc4)NC(=O)[C@H](CCCNC(=N)N)NC(=O)[C@H](CC(C)C)NC(=O)[C@H](CCCNC(=N)N)NC(=O)[C@H](Cc4ccc(O)cc4)NC(=O)[C@H](CCCCN)NC(=O)[C@H](CCSC)NC(=O)[C@H](CO)NC(=O)[C@H](Cc4c[nH]cn4)NC(=O)[C@H](CCCCN)NC3=O)C(=O)N[C@@H](CCCNC(=N)N)C(=O)N[C@@H](CCCCN)C(=O)N[C@@H]([C@@H](C)O)C(=O)N2)NC(=O)[C@H](CCCNC(=N)N)NC(=O)[C@H](CO)NC(=O)[C@H](CCCCN)NC(=O)[C@@H]2CCCN2C(=O)[C@H]([C@@H](C)CC)NC(=O)[C@H]([C@@H](C)O)NC(=O)[C@H](CC(=O)O)NC1=O [[Arg26]ShK], which IC50 [1] is on record?
Its IC50 is 0.208 nM.

What about the IC50 [2] of the same compound?
Its IC50 is 0.572 nM.

And the IC50 (hKv1.3)?
Its IC50 is 0.279 nM.

With CC[C@H](C)[C@@H]1NC(=O)[C@@H](NC(=O)[C@H](CO)NC(=O)[C@@H](N)CCCNC(=N)N)CSSC[C@@H](C(=O)O)NC(=O)[C@H]([C@@H](C)O)NC(=O)CNC(=O)[C@@H]2CSSC[C@@H]3NC(=O)[C@H](CCC(N)=O)NC(=O)[C@H](Cc4ccccc4)NC(=O)[C@H](C)NC(=O)[C@H]([C@@H](C)O)NC(=O)[C@H](CSSC[C@H](NC(=O)[C@H](CCCNC(=N)N)NC(=O)[C@H](CO)NC(=O)[C@H](CC(C)C)NC(=O)[C@H](CCCNC(=N)N)NC(=O)[C@H](Cc4ccc(O)cc4)NC(=O)[C@H](CCCCN)NC(=O)[C@H](CCSC)NC(=O)[C@H](CO)NC(=O)[C@H](Cc4c[nH]cn4)NC(=O)[C@H](CCCCN)NC3=O)C(=O)N[C@@H](CCCNC(=N)N)C(=O)N[C@@H](CCCCN)C(=O)N[C@@H]([C@@H](C)O)C(=O)N2)NC(=O)[C@H](CCCNC(=N)N)NC(=O)[C@H](CO)NC(=O)[C@H](CCCCN)NC(=O)[C@@H]2CCCN2C(=O)[C@H]([C@@H](C)CC)NC(=O)[C@H]([C@@H](C)O)NC(=O)[C@H](CC(=O)O)NC1=O [[Arg27]ShK] as the compound, how does the IC50 [1] read?
Its IC50 is 13 nM.

And the IC50 [2]?
The IC50 was 59.7 nM.

What about the IC50 (hKv1.3) of the same compound?
The IC50 was 100 nM.

Which results are given for CC[C@H](C)[C@@H]1NC(=O)[C@@H](NC(=O)[C@H](CO)NC(=O)[C@@H](N)CCCNC(=N)N)CSSC[C@@H](C(=O)O)NC(=O)[C@H]([C@@H](C)O)NC(=O)CNC(=O)[C@@H]2CSSC[C@@H]3NC(=O)[C@H](CCC(N)=O)NC(=O)[C@H](Cc4ccccc4)NC(=O)[C@H](C)NC(=O)[C@H]([C@@H](C)O)NC(=O)[C@H](CSSC[C@H](NC(=O)[C@H](Cc4ccccc4)NC(=O)[C@H](CO)NC(=O)[C@H](CC(C)C)NC(=O)[C@H](CCCNC(=N)N)NC(=O)[C@H](Cc4ccc(O)cc4)NC(=O)[C@H](CCCCN)NC(=O)[C@H](CCSC)NC(=O)[C@H](CO)NC(=O)[C@H](Cc4c[nH]cn4)NC(=O)[C@H](CCCCN)NC3=O)C(=O)N[C@@H](CCCNC(=N)N)C(=O)N[C@@H](CCCNC(=N)N)C(=O)N[C@@H]([C@@H](C)O)C(=O)N2)NC(=O)[C@H](CCCNC(=N)N)NC(=O)[C@H](CO)NC(=O)[C@H](CCCCN)NC(=O)[C@@H]2CCCN2C(=O)[C@H]([C@@H](C)CC)NC(=O)[C@H]([C@@H](C)O)NC(=O)[C@H](CC(=O)O)NC1=O [[Arg30]ShK]?
IC50 [1]: 0.014 nM; IC50 [2]: 0.027 nM; IC50 (hKv1.3): 0.04 nM

Which IC50 [1] does the source give for CC[C@H](C)[C@@H]1NC(=O)[C@@H](NC(=O)[C@H](CO)NC(=O)[C@@H](N)CCCNC(=N)N)CSSC[C@@H](C(=O)O)NC(=O)[C@H]([C@@H](C)O)NC(=O)CNC(=O)[C@@H]2CSSC[C@@H]3NC(=O)[C@H](CCC(N)=O)NC(=O)[C@H](Cc4ccccc4)NC(=O)[C@H](C)NC(=O)[C@H]([C@@H](C)O)NC(=O)[C@H](CSSC[C@H](NC(=O)[C@H](Cc4ccccc4)NC(=O)[C@H](CO)NC(=O)[C@H](CC(C)C)NC(=O)[C@H](CCCNC(=N)N)NC(=O)[C@H](Cc4ccc(O)cc4)NC(=O)[C@H](CCCCN)NC(=O)[C@H](CCSC)NC(=O)[C@H](CO)NC(=O)[C@H](Cc4c[nH]cn4)NC(=O)[C@H](CCCCN)NC3=O)C(=O)N[C@@H](CCCNC(=N)N)C(=O)N[C@@H](CCCCN)C(=O)N[C@@H](CCCNC(=N)N)C(=O)N2)NC(=O)[C@H](CCCNC(=N)N)NC(=O)[C@H](CO)NC(=O)[C@H](CCCCN)NC(=O)[C@@H]2CCCN2C(=O)[C@H]([C@@H](C)CC)NC(=O)[C@H]([C@@H](C)O)NC(=O)[C@H](CC(=O)O)NC1=O [[Arg31]ShK] here?
The IC50 was 12 nM.

What about the IC50 [2] of the same compound?
Its IC50 is 54.8 nM.

What about the IC50 (hKv1.3) of the same compound?
The IC50 was 3.3 nM.

For CC[C@H](C)[C@@H]1NC(=O)[C@@H](NC(=O)[C@H](CO)NC(=O)[C@@H](N)CCCNC(=N)N)CSSC[C@@H](C(=O)O)NC(=O)[C@H]([C@@H](C)O)NC(=O)[C@H](CCCNC(=N)N)NC(=O)[C@@H]2CSSC[C@@H]3NC(=O)[C@H](CCC(N)=O)NC(=O)[C@H](Cc4ccccc4)NC(=O)[C@H](C)NC(=O)[C@H]([C@@H](C)O)NC(=O)[C@H](CSSC[C@H](NC(=O)[C@H](Cc4ccccc4)NC(=O)[C@H](CO)NC(=O)[C@H](CC(C)C)NC(=O)[C@H](CCCNC(=N)N)NC(=O)[C@H](Cc4ccc(O)cc4)NC(=O)[C@H](CCCCN)NC(=O)[C@H](CCSC)NC(=O)[C@H](CO)NC(=O)[C@H](Cc4c[nH]cn4)NC(=O)[C@H](CCCCN)NC3=O)C(=O)N[C@@H](CCCNC(=N)N)C(=O)N[C@@H](CCCCN)C(=O)N[C@@H]([C@@H](C)O)C(=O)N2)NC(=O)[C@H](CCCNC(=N)N)NC(=O)[C@H](CO)NC(=O)[C@H](CCCCN)NC(=O)[C@@H]2CCCN2C(=O)[C@H]([C@@H](C)CC)NC(=O)[C@H]([C@@H](C)O)NC(=O)[C@H](CC(=O)O)NC1=O [[Arg33]ShK], which IC50 [1] is on record?
Its IC50 is 0.068 nM.

What about the IC50 [2] of the same compound?
The IC50 was 0.232 nM.

And the IC50 (hKv1.3)?
The IC50 was 0.102 nM.

— US20120121591A1 (priority 2009, published 2012)
